The text below walks through data of US12516038B2, “Inhibitors of antigen presentation by HLA-DR” (Janssen Pharmaceutica NV, priority 2020, dated 2026).

For one experiment, the target named is HLA-DRB1*0401 (Homo sapiens (Human), UniProt P01903+P01911, A100K/A169T/DEL228-266/F76Y/I96L/K127E/L162R/M171V/N62H/P40V/Q125Y/R42H/S133A/S149N/S66Y/V115G/V209L/W38E). As to the kind of experiment: HLA-DR4 HTRF assay. The class given is binding. The note with it: inhibition of loading of Alexa Fluor 647-labeled Cit-CII peptide onto HLA-DR4 (CLIP cleaved). The method in brief:
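HLA-DRB1*04:01 construct (α/β fused to human Fc, CLIP pre-cleaved by HRV3C overnight at 4° C) at 3 nM was preincubated 45 min with compound and 1 nM anti-Fc-Tb donor, then 40 nM Alexa647-Cit-CII1236-1249 peptide added. After 90 min at 37° C, the 665/620 nm HTRF ratio gave % inhibition; IC50 by nonlinear regression.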

In experiment [1] the test system is human peripheral blood CD4+ helper T cells. As to the kind of experiment: Pan-CD4+ T cell activation (off-target assay). The class given is cell-based. Particulars: anti-CD3/anti-CD28 stimulation, IL-2 production by ELISA. The procedure, abridged:
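IL-2 secretion was measured by ELISA of culture supernatant after 24 h of TCR stimulation. Stimulation used anti-CD3 coated at 1 μg/mL and 1 μg/mL soluble anti-CD28 on human blood CD4+ helper T cells without HLA-DR-expressing APCs, with compound or vehicle present.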

The test system of experiment [2] is HLA-DR4 restricted mouse T cell hybridoma line (DR4.CII.36.8) with HLA-DRB1*04:01-expressing Boleth cells. Put plainly: HLA-DR4-restricted peptide-specific T cell-based assay (hybridoma assay). The note with it: 6 h, inhibition of IL-2 production, CII259-273 peptide presented by Boleth cells. The procedure, abridged:
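IC50 values derive from 4-parameter logistic fits of IL-2 AlphaLISA signal over 8-point duplicate titrations. Compound and HLA-DRB1*04:01 Boleth APCs were preincubated 1 h, 37° C., before adding CII259-273-restricted DR4.CII.36.8 hybridoma cells with peptide for 6 h at 37° C., in DMEM/1% FCS.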

As for `CC[C@H]1CC(=O)c2ccc(O[C@H](c3ccncc3)c3ccc(C(N)=O)cc3)cc2O1` (single isomer, unassigned) [Example 41b, 4-((*S)—(((*S)-2-ethyl-4-oxochroman-7-yl)oxy)(pyridin-4-yl)methyl)benzamide], the IC50 (usually the midpoint of a concentration-inhibition curve) against HLA-DRB1*0401 was 1.1 µM; in experiment [1] (Homo sapiens, T-cell, 24 h) it was above 15 µM; in experiment [2] (Mus musculus, T-cell) it was 1.5 µM.

As to `NC(=O)c1ccc([C@H](Oc2ccc3c(c2)O[C@@H](c2ccccc2)CC3=O)c2ccncc2)cc1` (single isomer, unassigned) [Example 42a, 4-((*S)—(((*R)-4-oxo-2-phenylchroman-7-yl)oxy)(pyridin-4-yl)methyl)benzamide], the IC50 against HLA-DRB1*0401 was 3.8 µM; in experiment [1] (Homo sapiens, T-cell, 24 h) it was above 15 µM; in experiment [2] (Mus musculus, T-cell), 11 µM.

Consider `NC(=O)c1ccc([C@H](Oc2ccc3c(c2)O[C@H](c2ccccc2)CC3=O)c2ccncc2)cc1` (single isomer, unassigned) [Example 42b, 4-((*S)—(((*S)-4-oxo-2-phenylchroman-7-yl)oxy)(pyridin-4-yl)methyl)benzamide], for which the IC50 on HLA-DRB1*0401 worked out at 7.5 µM; in experiment [1] (Homo sapiens, T-cell, 24 h), 9.9 µM; in experiment [2] (Mus musculus, T-cell), 12 µM.

With `NC(=O)c1ccc([C@@H](Oc2ccc3c(c2)O[C@@H](c2ccccc2)CC3=O)c2ccncc2)cc1` (single isomer, unassigned) [Example 43a, 4-((*R)—(((*R)-4-oxo-2-phenylchroman-7-yl)oxy)(pyridin-4-yl)methyl)benzamide], the IC50 against HLA-DRB1*0401 was found to be 3.6 µM; in experiment [1] (Homo sapiens, T-cell, 24 h) it was 4.5 µM; in experiment [2] (Mus musculus, T-cell), 0.74 µM.

As to `NC(=O)c1ccc([C@@H](Oc2ccc3c(c2)O[C@H](c2ccccc2)CC3=O)c2ccncc2)cc1` (single isomer, unassigned) [Example 43b, 4-((*R)—(((*S)-4-oxo-2-phenylchroman-7-yl)oxy)(pyridin-4-yl)methyl)benzamide], the IC50 against HLA-DRB1*0401 is 4.9 µM; in experiment [1] (Homo sapiens, T-cell, 24 h), 9.9 µM; in experiment [2] (Mus musculus, T-cell) it was 0.63 µM.

For the compound `C[C@@H]1COc2cc(O[C@H](c3ccncc3)c3ccc(C(N)=O)cc3)ccc2C1=O` (single isomer, unassigned) [Example 44a, 4-((*S)—(((*R)-3-Methyl-4-oxochroman-7-yl)oxy)(pyridin-4-yl)methyl)benzamide], the IC50 is 1.6 µM against HLA-DRB1*0401; above 15 µM in experiment [1] (Homo sapiens, T-cell, 24 h); 1.6 µM in experiment [2] (Mus musculus, T-cell).

As for `C[C@@H]1COc2cc(O[C@@H](c3ccncc3)c3ccc(C(N)=O)cc3)ccc2C1=O` (single isomer, unassigned) [Example 44b, 4-((*R)—(((*R)-3-Methyl-4-oxochroman-7-yl)oxy)(pyridin-4-yl)methyl)benzamide], the IC50 against HLA-DRB1*0401 is 1.1 µM; in experiment [1] (Homo sapiens, T-cell, 24 h), above 15 µM; in experiment [2] (Mus musculus, T-cell), 2.3 µM.

Take `CC[C@@H]1COc2cc(O[C@H](c3ccncc3)c3ccc(C(N)=O)cc3)ccc2C1=O` (single isomer, unassigned) [Example 45a, 4-((*S)—(((*R)-3-ethyl-4-oxochroman-7-yl)oxy)(pyridin-4-yl)methyl)benzamide]: the IC50 was 1.1 µM against HLA-DRB1*0401; above 15 µM in experiment [1] (Homo sapiens, T-cell, 24 h); 3.4 µM in experiment [2] (Mus musculus, T-cell).

On to `CC[C@H]1COc2cc(O[C@H](c3ccncc3)c3ccc(C(N)=O)cc3)ccc2C1=O` (single isomer, unassigned) [Example 45b, 4-((*S)—(((*S)-3-ethyl-4-oxochroman-7-yl)oxy)(pyridin-4-yl)methyl)benzamide], for which the IC50 is 1.4 µM against HLA-DRB1*0401; above 15 µM in experiment [1] (Homo sapiens, T-cell, 24 h); 10 µM in experiment [2] (Mus musculus, T-cell).

Regarding `CC[C@@H]1COc2cc(O[C@@H](c3ccncc3)c3ccc(C(N)=O)cc3)ccc2C1=O` (single isomer, unassigned) [Example 46a, 4-((*R)—(((*R)-3-ethyl-4-oxochroman-7-yl)oxy)(pyridin-4-yl)methyl)benzamide], the IC50 was 0.97 µM against HLA-DRB1*0401; above 15 µM in experiment [1] (Homo sapiens, T-cell, 24 h); 1.5 µM in experiment [2] (Mus musculus, T-cell).

Regarding `CC[C@H]1COc2cc(O[C@@H](c3ccncc3)c3ccc(C(N)=O)cc3)ccc2C1=O` (single isomer, unassigned) [Example 46b, 4-((*R)—(((*S)-3-ethyl-4-oxochroman-7-yl)oxy)(pyridin-4-yl)methyl)benzamide], the IC50 at HLA-DRB1*0401 is 1.3 µM; in experiment [1] (Homo sapiens, T-cell, 24 h), 5 µM; in experiment [2] (Mus musculus, T-cell), 0.17 µM.

Take `Cc1c(O[C@@H](c2ccncc2)c2ccc(C(N)=O)cc2)ccc2c1OCCC2=O` (single isomer, unassigned) [Example 48a, (*R)-4-(((8-methyl-4-oxochroman-7-yl)oxy)(pyridin-4-yl)methyl)benzamide]: the IC50 was found to be 0.68 µM against HLA-DRB1*0401; 9.9 µM in experiment [1] (Homo sapiens, T-cell, 24 h); 0.14 µM in experiment [2].

As for `Cc1c(O[C@@H](c2ccncc2)c2ccc(C(N)=O)cc2)ccc2c1OCCC2=O` (single isomer, unassigned) [Example 48b, (*S)-4-(((8-methyl-4-oxochroman-7-yl)oxy)(pyridin-4-yl)methyl)benzamide], the values for the IC50 (against HLA-DRB1*0401; in experiment [1] (24 hrs); in experiment [2]) were 0.69 µM, above 15 µM and 1.1 µM, respectively.

For `Cc1cc2c(cc1O[C@@H](c1ccncc1)c1ccc(C(N)=O)cc1)OCCC2=O` (single isomer, unassigned) [Example 49a, (*R)-4-(((6-Methyl-4-oxochroman-7-yl)oxy)(pyridin-4-yl)methyl)benzamide], the IC50 came to 0.57 µM on HLA-DRB1*0401; 9.9 µM in experiment [1] (Homo sapiens, T-cell, 24 h); 0.2 µM in experiment [2] (Mus musculus, T-cell).

With `Cc1cc2c(cc1O[C@H](c1ccncc1)c1ccc(C(N)=O)cc1)OCCC2=O` (single isomer, unassigned) [Example 49b, (*S)-4-(((6-Methyl-4-oxochroman-7-yl)oxy)(pyridin-4-yl)methyl)benzamide], the IC50 turned out to be 1 µM on HLA-DRB1*0401; 15 µM in experiment [1] (Homo sapiens, T-cell, 24 h); 3 µM in experiment [2] (Mus musculus, T-cell).

Consider `NC(=O)c1ccc([C@@H](Oc2ccc3c(c2F)OCCC3=O)c2ccncc2)cc1` (single isomer, unassigned) [Example 50a, (*R)-4-(((8-Fluoro-4-oxochroman-7-yl)oxy)(pyridin-4-yl)methyl)benzamide], for which the IC50 against HLA-DRB1*0401 was found to be 1.9 µM; in experiment [1] (Homo sapiens, T-cell, 24 h) it was 9.9 µM; in experiment [2] (Mus musculus, T-cell), 0.24 µM.

`NC(=O)c1ccc([C@H](Oc2ccc3c(c2F)OCCC3=O)c2ccncc2)cc1` (single isomer, unassigned) [Example 50b, (*S)-4-(((8-Fluoro-4-oxochroman-7-yl)oxy)(pyridin-4-yl)methyl)benzamide]: the IC50 against HLA-DRB1*0401 is 1.9 µM; in experiment [1] (Homo sapiens, T-cell, 24 h), above 15 µM; in experiment [2] (Mus musculus, T-cell) it was 2.5 µM.

Take `NC(=O)c1ccc([C@@H](Oc2cc(F)c3c(c2)OCCC3=O)c2ccncc2)cc1` (single isomer, unassigned) [Example 51a, (*R)-4-(((5-Fluoro-4-oxochroman-7-yl)oxy)(pyridin-4-yl)methyl)benzamide]: the IC50 against HLA-DRB1*0401 was 3.6 µM; in experiment [1] (Homo sapiens, T-cell, 24 h) it was 15 µM; in experiment [2] (Mus musculus, T-cell) it was 0.25 µM.

For `NC(=O)c1ccc([C@@H](Oc2cc3c(cc2F)C(=O)CCO3)c2ccncc2)cc1` (single isomer, unassigned) [Example 52a, (*R)-4-(((6-Fluoro-4-oxochroman-7-yl)oxy)(pyridin-4-yl)methyl)benzamide], the IC50 on HLA-DRB1*0401 is 0.23 µM; in experiment [1] (Homo sapiens, T-cell, 24 h), above 15 µM; in experiment [2] (Mus musculus, T-cell), 0.56 µM.

For `NC(=O)c1ccc([C@@H](Oc2ccc3c(c2-c2ccccc2)OCCC3=O)c2ccncc2)cc1` (single isomer, unassigned) [Example 53a, (*R)-4-(((4-oxo-8-phenylchroman-7-yl)oxy)(pyridin-4-yl)methyl)benzamide], the IC50 against HLA-DRB1*0401 came out at 0.8 µM; in experiment [1] (Homo sapiens, T-cell, 24 h), 2.1 µM; in experiment [2] (Mus musculus, T-cell) it was 0.74 µM.

On to `NC(=O)c1ccc([C@H](Oc2ccc3c(c2-c2ccccc2)OCCC3=O)c2ccncc2)cc1` (single isomer, unassigned) [Example 53b, (*S)-4-(((4-oxo-8-phenylchroman-7-yl)oxy)(pyridin-4-yl)methyl)benzamide], for which the IC50 against HLA-DRB1*0401 came out at 0.6 µM; in experiment [1] (Homo sapiens, T-cell, 24 h), 3.2 µM; in experiment [2] (Mus musculus, T-cell), 0.45 µM.

`NC(=O)c1ccc([C@@H](Oc2cc3c(cc2-c2ccccc2)C(=O)CCO3)c2ccncc2)cc1` (single isomer, unassigned) [Example 54a, (*R)-4-(((4-oxo-6-phenylchroman-7-yl)oxy)(pyridin-4-yl)methyl)benzamide]: the IC50 worked out at 0.63 µM against HLA-DRB1*0401; 0.52 µM in experiment [1] (Homo sapiens, T-cell, 24 h); 0.078 µM in experiment [2] (Mus musculus, T-cell).

Consider `NC(=O)c1ccc([C@H](Oc2cc3c(cc2-c2ccccc2)C(=O)CCO3)c2ccncc2)cc1` (single isomer, unassigned) [Example 54b, (*S)-4-(((4-oxo-6-phenylchroman-7-yl)oxy)(pyridin-4-yl)methyl)benzamide], for which the IC50 came to 0.87 µM against HLA-DRB1*0401; 15 µM in experiment [1] (Homo sapiens, T-cell, 24 h); 4.3 µM in experiment [2] (Mus musculus, T-cell).
